# Measured values as given in patent US6472198B1, “Slow release substrates for driving microbial transformations of environmental contaminants” (The State of Oregon Acting by and through the State Board …, priority 1998, dated 2002).
# “Also recorded” adds a separate entry of the source.
# Columns and labels:
# [1] = Abiotic hydrolysis of TBOS and TKEBS in sterilized pH buffered solutions; assay type: physicochemical
# [2] = Hydrolysis period of slow release compounds in bioremediation studies; assay type: physicochemical; settings: TBOS to 1-butanol, TPOS to phenol
# Description: These alcohols can then be used by the microorganisms to cometabolize halogenated organics, such as TCE, for example. As discussed in the Examples below, the decrease in TBOS in a poisoned (killed) control compared similarly to the nonpoisoned (live) microbially active system under anaerobic conditions. Microbial activity was indicated by the production of acetate, butanol, butyrate, and hydrogen in the live microcosms, and the lack of production in the poisoned control. […] Thus, TBOS is not directly degraded, but is first hydrolyzed by reactions with water to form 1-butanol, which can then be used to drive the aerobic cometabolism of chlorinated organics.
# [3] = tested on: microbial culture grown on TBOS; test: Aerobic cometabolism of TCE by microorganisms grown on TBOS; assay type: cell-based
# Description: (§1) Gas phase TCE and cis-DCE concentrations were measured by injecting 10-100 μL of a gaseous sample into a HP-5890 gas chromatograph connected to a photoionization detector (PID) followed by a flame ionization detector (FID). Chromatographic separation was carried-out with a 30-m megabore GSQ-PLOT column from J&W Scientific (Folsom, Calif.). The GC operating conditions were as follows: injector temperature, 250° C.; detector temperature: 280° C.; the column was initially maintained at 40° C. for 2 minutes and then heated to 220° C. at 15° C./minute.
# The microcosms for aerobic cometabolism studies were carried out as described in Example 1 under the heading “Aerobic Biodegradation.” The bacterial culture used was that described in Example 1 under the heading “Enrichment of Aerobic Culture.” cis-DCE and TCE stocks in water were prepared by saturating distilled water with cis-DCE and TCE at 30° C. TCE and cis-DCE dissolved in the water to their solubility limit. The aqueous phase from these stocks was then added to the microcosms to yield the required concentrations (0.8 mg/L for TCE and 2 mg/L for cis-DCE). TBOS was introduced into the microcosms by injecting pure TBOS liquid using a microliter syringe.
# Microbial culture from the wastewater treatment plant of Corvallis, Oregon grown on TBOS was tested for its ability to cometabolize TCE and cis-DCE. Microcosms were constructed with 4.0 mg (dry weight) of culture enriched from a continuous-feed batch reactor according to the procedure described in Example 1. Three microcosms and a control were evaluated: a poisoned control (i.e., a killed microcosm) with TBOS and TCE; a biologically active microcosm with TBOS and TCE; and a resting cell microcosm with only TCE; and an acetylene block microcosm with TBOS and TCE (having acetylene in the head space). The acetylene block experiment was used to investigate the presence of a monooxygenase enzyme.
# [4] = tested on: Pt. Mugu groundwater and aquifer solids microcosm; test: Anaerobic reductive dechlorination of TCE in Pt. Mugu microcosm amended with TBOS; assay type: cell-based; settings: TCE 5 mg/L, TBOS 1 g/L, Pt. Mugu microcosm
# [5] = tested on: indigenous microorganisms in groundwater (Lawrence Livermore Site 300); test: Anaerobic reductive dechlorination of TCE in Site 300 groundwater microcosms containing TKEBS; assay type: cell-based
# Description: In initial studies, groundwater from Lawrence Livermore Laboratory(Site 300, D3 Well) was used to make up six different microcosms. Two of these microcosms were sterilized to form controls, one by the addition of mercuric chloride and the other by autoclaving. Two microcosms were amended with sodium benzoate (200 mg/L) as an additional carbon source and the last two were left untouched.
# Later experiments were carried out to re-evaluate the anaerobic TCE transformation rates driven by TKEBS transformation. The culture used for these biodegradation studies were indigenous microorganisms stimulated from the groundwater (as described in Example 1) collected from the same site initially studied. The anaerobic biodegradation studies were carried out using 1L media bottles. The microcosms were prepared in an anaerobic glove box and then purged using treated (to remove oxygen) nitrogen to remove the hydrogen and carbon dioxide introduced into the microcosms from the glove box.
# The groundwater was purged with treated nitrogen to remove all traces of TCE and cis-DCE prior to re-injection of TCE. Pure TCE was added to obtain concentrations of 100 mg/L(aqueous). […] The microcosms were analyzed for chlorinated ethenes, hydrogen, carbon dioxide, alcohols, and their fermentation products.
# [6] = tested on: microbially active Site 300 groundwater microcosm; test: Reductive dechlorination of TCE in Site 300 groundwater microcosm with TBOS and TKEBS added; assay type: cell-based; settings: TCE additions at 0, 135, 160 days
# Description: The TCE dechlorination experiments were conducted in the same way as described in Example 3. In these experiments, however, TBOS and TKEBS were amended to samples of the groundwater microcosms.
# Shown in FIGS. 11a-11c is a microbial active version of a Site 300 microcosm with TBOS and TKEBS added. However in this case both ethybutanol and butanol are utilized, compared to the poisoned control where they accumulated. Acetate, butyrate and hydrogen are produced as a result of fermentation reactions. […] Three additions of TCE are transformed at 0, 135, and 160 days, with the corresponding increases in c-DCE occurring. Hydrogen is shown to be utilized upon TCE addition and produced once TCE transformation has stopped.
# [7] = tested on: microbial culture grown on TBOS; settings: cited from earlier work
# [8] = tested on: microbial culture grown on TBOS; test: Aerobic cometabolism of cis-DCE by microorganisms grown on TBOS; assay type: cell-based; settings: biologically active microcosm
# Description: as §1
# The microcosms for aerobic cometabolism studies were carried out as described in Example 1 under the heading “Aerobic Biodegradation.” The bacterial culture used was that described in Example 1 under the heading “Enrichment of Aerobic Culture.” cis-DCE and TCE stocks in water were prepared by saturating distilled water with cis-DCE and TCE at 30° C. TCE and cis-DCE dissolved in the water to their solubility limit. […]
# The microbial culture grown on TBOS was tested for its ability to cometabolize cis-DCE. […] Four microcosms and two controls were evaluated: a poisoned control with TBOS and cis-DCE; an autoclaved control with TBOS and cis-DCE; two biologically active microcosms with TBOS and cis-DCE; a resting cell microcosm with only cis-DCE; and an acetylene block microcosm with TBOS and cis-DCE.
# [9] = Hydrolysis rate category of organosilanes and organosiloxanes, approximately based on half lives; assay type: physicochemical; set-up: key: Slow - 1 month; Very Slow - Several months; Very Fast - days; Fast - weeks
# [10] = organosilanes, Table 1, rates approximately based on half lives
# [11] = organosiloxanes, Table 2, key given under Table 1
molecule,measurement,setting,value
"CCC(CC)CO[Si](OCC(CC)CC)(OCC(CC)CC)OCC(CC)CC [No. 3, Tetrakis(2-ethylbutoxy) silane]",rate of hydrolysis compared with TBOS,[1]; listed as TKEBS,much slower rate; also recorded: about an order of magnitude lower
same,Rates of Hydrolysis Based on 2-ethyl-butanol production,"[1]; pH 5.0, 30 °C, 10 mg/L",0.023 µmol/day
same,effect of temperature on hydrolysis,"[1]; pH 7, 10 mg/L, 15 °C vs 30 °C",Very little increase
same,Rates of Hydrolysis Based on 2-ethyl-butanol production,"[1]; pH 7.0, 15 °C, 10 mg/L",0.011 µmol/day
same,Rates of Hydrolysis Based on 2-ethyl-butanol production,"[1]; pH 7.0, 30 °C, 10 mg/L",0.012 µmol/day
same,factor of increase in rate of hydrolysis on ten-fold increase in concentration,"[1]; pH 7, 30 °C, 10 mg/L to 100 mg/L",10
same,Rates of Hydrolysis Based on 2-ethyl-butanol production,"[1]; pH 7.0, 30 °C, 100 mg/L",0.105 µmol/day
same,Rates of Hydrolysis Based on 2-ethyl-butanol production,"[1]; pH 7.8 (site groundwater), 30 °C, 10 mg/L",0.011 µmol/day
same,Rates of Hydrolysis Based on 2-ethyl-butanol production,"[1]; pH 9.0, 30 °C, 10 mg/L",0.022 µmol/day
"c1ccc(O[Si](Oc2ccccc2)(Oc2ccccc2)Oc2ccccc2)cc1 [No. 4, Tetraphenoxysilane]",period over which hydrolysis to the alcohol occurs,[2],weeks
"ClC=C(Cl)Cl [TCE, Trichloroethylene]",TCE transformation in acetylene-blocked microcosm,"[3]; TBOS and TCE, acetylene in head space, in 140 hours",about 20%
same,time to complete cometabolism of TCE,"[3]; TCE 0.89 mg/L (1.6 μmol), microcosm with TBOS 20 mg/L added",≤ 65 h
same,"TCE cometabolism by resting cells, less than that achieved with TBOS addition","[3]; resting cells, no TBOS added",15-20%
same,incubation time after which dechlorination of the substance was observed,[4],40 days
same,anaerobic TCE transformation in initial experiments (in words),"[5]; 125 mL serum bottles, groundwater microcosms",complete transformation of TCE to cis-DCE
same,time for dechlorination of TCE to cis-DCE,"[5]; TCE 100 mg/L, September '97 groundwater containing TKEBS and 2-ethylbutanol, 30 °C",14 days
same,TCE transformation (in words),[6],rapidly transformed to c-DCE
"C=CCl [VC, vinyl chloride]",incubation time after which dechlorination of the substance was observed,[4],about 125 days
Cl[C@@H]1O[C@@H]1Cl [cis-DCE epoxide],half-life of abiotic transformation of cis-DCE epoxide,[7],70 h
same,half-life of cis-DCE epoxide transformation,[8],about 35 hours
"Cl/C=C\Cl [cis-DCE, cis-dichloroethylene]",incubation time after which dechlorination of the substance was observed,[4],about 90 days
"CCCO[Si](OCCC)(OCCC)OCCC [compound 1, Tetrapropoxysilane]",Hydrolysis rate,[9]; [10],Slow (Slow - 1 month)
"CCCCO[Si](OCCCC)(OCCCC)OCCCC [compound 2, Tetrabutoxysilane]",Hydrolysis rate,[9]; [10],Slow (Slow - 1 month)
"CCC(CC)CO[Si](OCC(CC)CC)(OCC(CC)CC)OCC(CC)CC [compound 3, Tetrakis(2-ethylbutoxy) silane]",Hydrolysis rate,[9]; [10],Very Slow
"CC(=O)O[Si](OC(C)=O)(OC(C)=O)OC(C)=O [compound 5, Silicon tetraacetate]",Hydrolysis rate,[9]; [10],Very Fast
"CCC(=O)O[Si](OC(=O)CC)(OC(=O)CC)OC(=O)CC [compound 6, Silicon tetrapropionate]",Hydrolysis rate,[9]; [10],Fast
"CCCC(=O)O[Si](OC(=O)CCC)(OC(=O)CCC)OC(=O)CCC [compound 7, Silicon tetrabutyrate]",Hydrolysis rate,[9]; [10],Fast
"C=CCO[Si](OCC=C)(OCC=C)OCC=C [compound 11, Tetraallyloxy silane]",Hydrolysis rate,[9]; [10],Slow (Slow - 1 month)
"CCC(C)CO[Si](OCC(C)CC)(OCC(C)CC)OCC(C)CC (stereo not shown) [compound 13, Tetrakis(2-methylbutoxy) silane]",Hydrolysis rate,[9]; [10],Very Slow
"CCC(C)O[Si](OC(C)CC)(OC(C)CC)OC(C)CC (stereo not shown) [compound 14, Tetrakis(1-methylpropoxy) silane]",Hydrolysis rate,[9]; [10],Slow (Slow - 1 month)
"CC(C)CO[Si](OCC(C)C)(OCC(C)C)OCC(C)C [compound 15, Tetrakis(2-methylpropoxy) silane]",Hydrolysis rate,[9]; [10],Slow (Slow - 1 month)
"CC(C)O[Si](OC(C)C)(OC(C)C)OC(C)C [compound 18, Tetrakis(1-methylethoxy) silane]",Hydrolysis rate,[9]; [10],Slow (Slow - 1 month)
CCO[Si](OCC)(OCC)O[Si](OCC)(OCC)OCC [compound 19],Hydrolysis rate,[9]; [11],Slow (Slow - 1 month)
CCCO[Si](OCCC)(OCCC)O[Si](OCCC)(OCCC)OCCC [compound 20],Hydrolysis rate,[9]; [11],Slow (Slow - 1 month)
CCCCO[Si](OCCCC)(OCCCC)O[Si](OCCCC)(OCCCC)OCCCC [compound 21],Hydrolysis rate,[9]; [11],Slow (Slow - 1 month)
c1ccc(O[Si](Oc2ccccc2)(Oc2ccccc2)O[Si](Oc2ccccc2)(Oc2ccccc2)Oc2ccccc2)cc1 [compound 22],Hydrolysis rate,[9]; [11],Slow (Slow - 1 month)
CCO[Si](OCC)(OCC)O[Si](OCC)(OCC)O[Si](OCC)(OCC)OCC [compound 23],Hydrolysis rate,[9]; [11],Slow (Slow - 1 month)
Tetrakis(1-hydroxypropoxy) silane [compound 17],Hydrolysis rate,[9]; [10],Fast
Tetrakis(benzylmethoxy) silane [compound 16],Hydrolysis rate,[9]; [10],Fast
Tetraphenoxysilane [compound 4],Hydrolysis rate,[9]; [10],Very Fast
